Data on two compounds can be found in patent US20140141137A1, “Encapsulated Antimicrobial Material” (Danisco A/S, priority 2012, published 2014).

For data set [1] the following is noted: Davies et al. 1998; cited from earlier work.
For data set [2] the following is noted: reportedly; or more; cited from earlier work.
For a further data set, the system named is moulds. In words: Mould spoilage of sliced bread over shelf life. The following applies: 12 ppm on flour weight; normal shelf life period. The format is cell-based. The method, then:
(§1) A bread is made by preparing a dough containing flour, water, yeast, salt and a dough conditioner. Included in the dough mix is either natamycin or encapsulated natamycin or neither. […] All ingredients are mixed together thoroughly for between 3 and 10 minutes.
When the bread is cool, the natamycin content in the bread is assayed. The natamycin content from bread containing encapsulated natamycin is higher than that in the bread containing unencapsulated natamycin, indicating the heat protective benefit of encapsulated natamycin. The bread is then sliced and observed over the normal shelf life period for growth of moulds.

The next data set deals with yeast. In words: Leavening of bread dough containing natamycin. The format is cell-based. The note with it: 12 ppm on flour weight; about 50 minutes, 85% relative humidity, 40° C. The method, then:
as §1
The dough is then given a short resting period after mixing (approx. 5 to 10 minutes) followed by scaling at the required weight. A second rest period is then applied following a second moulding in shape the dough as desired. The dough is then placed into a tin or tray. A leavening period for about 50 minutes at 85% relative humidity at 40° C. then follows.

Data set [3] concerns common food spoilage yeasts and moulds. The following applies: cited from earlier work.

On to “nisin (ITSISLCTPGCKTGALMGCNMKTATCHCSIHVSK; Lantibiotic nisin-A; UniProt P13068 24-57, looked up) [polypeptide bacteriocin produced by the lactic acid bacteria, Lactococcus lactis subsp. lactis]”, for which the “pH of optimum stability” value in data set [1] is recorded as 3. Moreover, the “Effective levels to preserve foodstuffs” value in data set [2] is listed as 25-500 IU/g.

Consider `C[C@@H]1C/C=C/C=C/C=C/C=C/[C@H](O[C@@H]2O[C@H](C)[C@@H](O)[C@H](N)[C@@H]2O)C[C@@H]2O[C@](O)(C[C@@H](O)C[C@H]3O[C@@H]3/C=C/C(=O)O1)C[C@H](O)[C@H]2C(=O)O` [natamycin], for which the “Mould spoilage / extension of shelf life of sliced bread” value in the data set with moulds was “Delay of mould spoilage is observed”. The “Leavening of bread dough” value in the data set on yeast is “poor leavening”. Besides, the “Concentrations inhibiting most strains” value in data set [3] is recorded as 1-15 ppm.
